Results as given in patent US10662146B2, “Prodrugs of fencamfamine” (Praxis Bioresearch, LLC, priority 2015, dated 2020).
“And” between values parts separate entries of the source, which are not always exact repeats. Identical values can stand only once. “Also recorded” adds a separate entry of the source. Like-named read-outs stand apart in the source and are kept apart here.

Experiments:
[1] = system: spontaneous locomotor activity; assay: Spontaneous locomotor activity (sLMA), oral administration; assay type: in vivo, Male Sprague-Dawley (SD) rats; conditions: p.o. 1, 5 or 10 mg/kg equivalent of PRX-002 (−), 60 min before 60 min test, vs vehicle
Protocol: Male Sprague-Dawley (SD) were housed in groups of three under controlled conditions. Water and food were available ad libitum. The rats were kept for 1 week under these conditions before behavioral test. On the day of test rats were allowed to acclimate to the testing room for at least 30 min before test compound administration. Rats were randomly assigned into 4 groups.
Vehicle was 0.1% Tween-80 and 0.5% carboxymethylcellulose to which respective amount of PRX-P4-003 was added to obtain a clear solution.
Animals were p.o. administered with Veh or 3 doses of PRX-P4-003 [1, 5 or 10 mg/kg equivalent dose of active compound PRX-002 (−)] at 60 min before spontaneous locomotor activity (sLMA) test.
The rat was placed at the center of test chamber for the 60 min sLMA video recording. 60 min of spontaneous locomotion activity was video recorded and off line analyzed with Animal Behavior Video Tracking Analysis System (Ji Liang Software Technology Co., Ltd., Shanghai, China). Total traveling distance (cm) and duration (sec) of locomotor activity of every 15 min is presented FIGS. 11A and 11B.

[2] = Single dose oral PK study in male Sprague Dawley rats (plasma by LC-MS/MS); assay type: in vivo; conditions: for Plasma concentration of PRX-P4-003 / AUC% extrap of PRX-P4-003 / Tmax: mean; for Tmax: male, rat, in vivo
Procedure, shortened: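 Fasted adult male Sprague Dawley rats (8-10 weeks) got a single oral dose of prodrug, as Tween 80/0.5% CMC suspension, equivalent to 5 mg/kg PRX-002 (up to 10 or 15 mg/kg in some studies). Retro-orbital K2EDTA blood was sampled over 24 h. Plasma fencamfamine was measured by LC-MS/MS.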

[3] = system: spontaneous locomotor activity; assay: Spontaneous locomotor activity (sLMA), intravenous administration; assay type: in vivo, Male SD rats; conditions: i.v. 25.8 mg/kg, equivalent to 10 mg/kg of PRX-002 (−), 90 min recording, vs vehicle
Protocol: Male SD rats were intravenously administered with PRX-002(−) (2 mg/kg) and prodrug PRX-P4-003 [(25.8 mg/kg, equivalent to 10 mg/kg of PRX-002 (−)], and vehicle just before sLMA test.
Vehicle was: 10% PEG 400 (v/v)+30% (v/v) of (50% w/v) Hydroxypropyl-ß-cyclodextrin in water+60% (v/v) sterile water for injection (SWFI): 1 ml/kg volume.
PRX-P4-003 solution was: 25.8 mg/ml PRX-P4-003 (25.8 mg/kg: equivalent to 10 mg/ml active drug, i.v. @volume of 1 ml/kg). 42.3 mg PRX-P4-003 was added to vehicle 1.639 ml, vortexed for 30 min under room temperature to get a uniform suspension solution, suspension solution was continuously stirred during dosage.
The PRX-P4-002(−) solution was: 2 mg/ml PRX-P4-002(−) (2 mg/kg, i.v.@volume of 1 ml/kg). 4.5 mg PRX-002(−) was added to 2.25 ml Vehicle, vortexed for 30 min under room temperature to get a clear solution, the solution was continuously stirred during dosage.
Rat was placed at the center of test chamber for the 90 min sLMA video recording. (n=3/group).

## CCCCCCCCCCCCCCCCCC(=O)OCOC(=O)N(CC)C1C2CCC(C2)C1c1ccccc1 (single isomer, unassigned) [PRX-P4-003, N-(Octadecanoyloxymethoxycarbonyl)-(−)-N-ethyl-3-phenylbicyclo[2.2.1]heptan-2-amine]
[1]
  Spontaneous locomotor activity (sLMA): total traveling distance and duration: dose dependent increase in sLMA; also recorded: both traveling distance and locomotion duration increased
[2]; PRX-P4-003 administered orally (FIG. 4)
  Prodrug form present in the plasma: almost none
[2]; PRX-P4-003 oral 5 mg/kg b.w., 0.00 h
  Plasma concentration of PRX-P4-003: 0.00
[2]; PRX-P4-003 oral 5 mg/kg b.w., 0.08 h
  Plasma concentration of PRX-P4-003: 0.00
[2]; PRX-P4-003 oral 5 mg/kg b.w., 0.25 h
  Plasma concentration of PRX-P4-003: 0.00
[2]; PRX-P4-003 oral 5 mg/kg b.w., 0.50 h
  Plasma concentration of PRX-P4-003: 0.00
[2]; PRX-P4-003 oral 5 mg/kg b.w., 1.00 h
  Plasma concentration of PRX-P4-003: 0.00
[2]; PRX-P4-003 oral 5 mg/kg b.w., 2.00 h
  Plasma concentration of PRX-P4-003: 0.00
[2]; PRX-P4-003 oral 5 mg/kg b.w., 4.00 h
  Plasma concentration of PRX-P4-003: 0.00
[2]; PRX-P4-003 oral 5 mg/kg b.w., 6.00 h
  Plasma concentration of PRX-P4-003: 0.00
[2]; PRX-P4-003 oral 5 mg/kg b.w., 24.00 h
  Plasma concentration of PRX-P4-003: 0.00
[2]; PRX-P4-003 oral 5 mg/kg, 5 mg/kg
  AUC% extrap of PRX-P4-003: 0.0 ± 0.0% and 0.0%
[2]; PRX-P4-003 oral 10 mg/kg b.w., 0.00 h
  Plasma concentration of PRX-P4-003: 0.00
[2]; PRX-P4-003 oral 10 mg/kg b.w., 0.08 h
  Plasma concentration of PRX-P4-003: 0.00
[2]; PRX-P4-003 oral 10 mg/kg b.w., 0.25 h
  Plasma concentration of PRX-P4-003: 0.00
[2]; PRX-P4-003 oral 10 mg/kg b.w., 0.50 h
  Plasma concentration of PRX-P4-003: 0.00
[2]; PRX-P4-003 oral 10 mg/kg b.w., 1.00 h
  Plasma concentration of PRX-P4-003: 0.00
[2]; PRX-P4-003 oral 10 mg/kg b.w., 2.00 h
  Plasma concentration of PRX-P4-003: 0.00
[2]; PRX-P4-003 oral 10 mg/kg b.w., 4.00 h
  Plasma concentration of PRX-P4-003: 0.00
[2]; PRX-P4-003 oral 10 mg/kg b.w., 6.00 h
  Plasma concentration of PRX-P4-003: 0.00
[2]; PRX-P4-003 oral 10 mg/kg b.w., 24.00 h
  Plasma concentration of PRX-P4-003: 0.00
[2]; PRX-P4-003 oral 10 mg/kg
  AUC% extrap of PRX-P4-003: 0.0%
[2]; PRX-P4-003 oral administration (FIG. 2, FIG. 4)
  Active PRX-002 (−) Isomer formed in plasma: desired plasma concentration
[2]; Sprague Dawley, PRX-P4-003 oral 10 mg/kg, read-out: Tmax of PRX-P4-003
  Tmax: 0 h
[2]; Sprague Dawley, oral 5 mg/kg [equivalent to PRX-002 (−)], analyte: prodrug in plasma, read-out: Oral PK Parameters Tmax, Prodrug
  Tmax: 0 h
[2]; Sprague-Dawley, PRX-P4-003 oral 5 mg/kg, read-out: Tmax of PRX-P4-003
  Tmax: 0 h
[3]
  Spontaneous locomotor activity (sLMA): total traveling distance and duration: no increase in sLMA; also recorded: practically no change
